# Source: patent US8835464B2, “Triazole compounds that modulate HSP90 activity” (Synta Pharmaceuticals Corp., priority 2006, dated 2014)
# Counter-ions that a name gives are not always drawn.
# Tested on: Her2
# Assay: Degradation of Her2 in BT-474 cells, Western blot (Method 1)
# Type: cell-based, human
# Conditions: 0.5 μM, overnight, positive control
# Protocol: Human high-Her2 breast carcinoma BT474 (HTB-20), SK-BR-3 (HTB-30) and MCF-7 breast carcinoma (HTB-22) from American Type Culture Collection, VA, USA were grown in Dulbecco's modified Eagle's medium with 4 mM L-glutamine and antibiotics ([…] penicillin and 100 ug/ml streptomycine; GibcoBRL). To obtain exponential cell growth, cells were trypsinized, counted and seeded at a cell density of 0.5×10^6 cells/ml regularly, every 3 days. All experiments were performed on day 1 after cell passage.
# BT-474 cells are treated with 0.5 μM, 2 μM, or 5 μM of 17AAG (a positive control) or 0.5 μM, 2 μM, or 5 μM of a compound of the invention overnight in DMEM medium. After treatment, each cytoplasmic sample is prepared from 1×10^6 cells by incubation of cell lysis buffer (#9803, cell Signaling Technology) on ice for 10 minutes. The resulting supernatant used as the cytosol fractions is dissolved with sample buffer for SDS-PAGE and run on a SDS-PAGE gel, blotted onto a nitrocellulose membrane by using semi-dry transfer. Non-specific binding to nitrocellulose is blocked with 5% skim milk in TBS with 0.5% Tween at room temperature for 1 hour, then probed with anti-Her2/ErB2 mAb (rabbit IgG, #2242, Cell Signaling) and anti-Tubulin (T9026, Sigma) as housekeeping control protein. […]
row,SMILES,degradation of Her2
1,"C=CCNC1=C2C[C@@H](C)C[C@H](OC)[C@H](O)[C@@H](C)/C=C(\C)[C@H](OC(N)=O)[C@@H](OC)/C=C\C=C(/C)C(=O)NC(=CC1=O)C2=O [Compound 17AAG, 17-allylamino-17-demethoxygeldanamycin]",partial degradation

# Tested on: Hsp90
# Assay: IC50 of compounds of the invention, Example B Method 2 (Tables 6-9)
# Type: cell-based, human
# Conditions: Table 7; Her2 degradation / inhibition of Hsp90; Method 2: MV-4-11 cells, 72 hours, Cell Counting Kit-8; read-out: IC50
row,IC50 [nM],SMILES
1,2740,"CC(C)c1cc(-c2nnc(NC(=O)COc3ccc(Cl)cc3)n2-c2ccc3c(ccn3C)c2)c(O)cc1O [Compound 19a, 2-(4-chlorophenoxy)-N-(5-(2,4-dihydroxy-5-isopropylphenyl)-4-(1-methyl-1H-indol-5-yl)-4H-1,2,4-triazol-3-yl)acetamide]"
2,5920,"CC(C)c1cc(-c2nnc(NC(=O)C3CCCC3)n2-c2ccc3c(ccn3C)c2)c(O)cc1O [Compound 20a, N-(5-(2,4-dihydroxy-5-isopropylphenyl)-4-(1-methyl-1H-indol-5-yl)-4H-1,2,4-triazol-3-yl)cyclopentanecarboxamide]"
3,1560,"CC(C)C(=O)Nc1nnc(-c2cc(C(C)C)c(O)cc2O)n1-c1ccc2c(ccn2C)c1 [Compound 14a, N-(5-(2,4-dihydroxy-5-isopropylphenyl)-4-(1-methyl-1H-indol-5-yl)-4H-1,2,4-triazol-3-yl)isobutyramide]"
4,1400,"CCCC(=O)Nc1nnc(-c2cc(C(C)C)c(O)cc2O)n1-c1ccc2c(ccn2C)c1 [Compound 12a, N-(5-(2,4-dihydroxy-5-isopropylphenyl)-4-(1-methyl-1H-indol-5-yl)-4H-1,2,4-triazol-3-yl)butyramide]"
5,1460,"CC(C)c1cc(-c2nnc(NC(=O)Cc3ccccc3)n2-c2ccc3c(ccn3C)c2)c(O)cc1O [Compound 16a, N-(5-(2,4-dihydroxy-5-isopropylphenyl)-4-(1-methyl-1H-indol-5-yl)-4H-1,2,4-triazol-3-yl)-2-phenylacetamide]"
6,2900,"CC(C)c1cc(-c2nnc(Nc3cccc(N)c3)n2-c2ccc3c(ccn3C)c2)c(O)cc1O [Compound 6a, 4-(5-(3-aminophenylamino)-4-(1-methyl-1H-indol-5-yl)-4H-1,2,4-triazol-3-yl)-6-isopropylbenzene-1,3-diol]"
7,1800,"COc1cccc(Nc2nnc(-c3cc(C(C)C)c(O)cc3O)n2-c2ccc3c(ccn3C)c2)c1 [Compound 8a, 4-isopropyl-6-(5-(3-methoxyphenylamino)-4-(1-methyl-1H-indol-5-yl)-4H-1,2,4-triazol-3-yl)benzene-1,3-diol]"
8,3500,"CNc1nnc(-c2cc(C(C)C)c(O)cc2O)n1-c1ccc2c(ccn2C)c1 [Compound 2a, 4-Isopropyl-6-[4-(1-methyl-1H-indol-5-yl)-5-methylamino-4H-[1,2,4]triazol-3-yl]-benzene-1,3-diol]"
9,1040,"CC(C)c1cc(-c2nnc(NC(=O)c3ccco3)n2-c2ccc3c(ccn3C)c2)c(O)cc1O [Compound 15a, N-(5-(2,4-dihydroxy-5-isopropylphenyl)-4-(1-methyl-1H-indol-5-yl)-4H-1,2,4-triazol-3-yl)furan-2-carboxamide]"

# Same assay, conditions: Table 8; Her2 degradation / inhibition of Hsp90; Method 2: MV-4-11 cells, 72 hours, Cell Counting Kit-8
row,SMILES,IC50 [nM]
1,"CCNC(=O)Sc1nnc(-c2ccc(OC(=O)N(C)C)cc2OC(=O)N(C)C)n1-c1cccc2ccccc12 [Compound 6b, 4-(5-(ethylcarbamoylthio)-4-(naphthalen-1-yl)-4H-1,2,4-triazol-3-yl)-1,3-phenylene bis(dimethyl carbamate)]",> 100000

# Same assay, conditions: Table 8; Her2 degradation / inhibition of Hsp90; Method 2: MV-4-11 cells, 72 hours, Cell Counting Kit-8; read-out: IC50
row,IC50 [nM],SMILES
1,< 100,"COCCC(=O)Oc1cc(O)c(-c2nnc(OC(=O)CCOC)n2-c2ccc3c(ccn3C)c2)cc1C(C)C [Compound 18b, 5-hydroxy-2-isopropyl-4-(5-(3-methoxypropanoyloxy)-4-(1-methyl-1H-indol-5-yl)-4H-1,2,4-triazol-3-yl)phenyl 3-methoxypropanoate]"
2,30000,"COCCOc1ccc(-c2nnc(S)n2-c2cccc3ccccc23)c(O)c1 [Compound 5b, 2-(5-mercapto-4-(naphthalen-1-yl)-4H 1,2,4-triazol-3-yl)-5-(2-methoxyethoxy) phenol]"
3,> 2000,"CCc1cc(-c2nnc(S)n2-c2cccc3ccccc23)c(OC(=O)C(C)(C)C)cc1OC(=O)C(C)(C)C [Compound 3b, 4-ethyl-6-(5-mercapto-4-(naphthalen-1-yl)-4H-1,2,4-triazol-3-yl)-1,3-phenylene bis(2,2-dimethylpropanoate)]"
4,> 2000,"CCc1cc(-c2nnc(S)n2-c2cccc3ccccc23)c(OC(=O)c2ccccc2)cc1OC(=O)c1ccccc1 [Compound 4b, 4-ethyl-6-(5-mercapto-4-(naphthalen-1-yl)-4H-1,2,4-triazol-3-yl)-1,3-phenylene dibenzoate]"

# Same assay, conditions: Table 9; Her2 degradation / inhibition of Hsp90; Method 2: MV-4-11 cells, 72 hours, Cell Counting Kit-8; dihydrochloride; read-out: IC50 Range
row,SMILES,IC50 [nM]
1,"CC(C)c1cc(-c2nnc(O)n2-c2ccc(N(C)C)nc2)c(O)cc1O [Compound 7d, 4-(4-(6-(dimethylamino)pyridin-3-yl)-5-hydroxy-4H-1,2,4-triazol-3-yl)-6-isopropylbenzene-1,3-diol dihydrochloride]",47

# Same assay, conditions: Table 9; Her2 degradation / inhibition of Hsp90; Method 2: MV-4-11 cells, 72 hours, Cell Counting Kit-8; read-out: IC50 Range
row,SMILES,IC50 [nM]
1,"CC(C)c1cc(-c2nnc(O)n2-c2ccc(N3CCN(C)CC3)nc2)c(O)cc1O [Compound 8d, 4-(5-hydroxy-4-(6-(4-methylpiperazin-1-yl)pyridin-3-yl)-4H-1,2,4-triazol-3-yl)-6-isopropylbenzene-1,3-diol]",243
2,"COC(CN(C)c1ccc(-n2c(O)nnc2-c2cc(C(C)C)c(O)cc2O)cn1)OC [Compound 2d, 4-(4-(6-(N-(2,2-dimethoxyethyl)-N-methylamino)pyridin-3-yl)-5-hydroxy-4H-1,2,4-triazol-3-yl)-6-isopropylbenzene-1,3-diol]",107

# Continued, values first:
row,IC50 [nM],SMILES
1,> 330,"CC(C)c1cc(-c2nnc(O)n2-c2cccc(S(=O)(=O)N(C)CCN(C)C)c2)c(O)cc1O [Compound 10d, 3-(3-(2,4-dihydroxy-5-isopropylphenyl)-5-hydroxy-4H-1,2,4-triazol-4-yl)-N-(2-(dimethylamino)ethyl)-N-methylbenzenesulfonamide]"
2,93,"Cc1ccc(-n2c(O)nnc2-c2cc(C(C)C)c(O)cc2O)cc1S(=O)(=O)N(C)C [Compound 11d, 5-(3-(2,4-dihydroxy-5-isopropylphenyl)-5-hydroxy-4H-1,2,4-triazol-4-yl)-N,N,2-trimethylbenzenesulfonamide]"
